From patent US6339042B1, “Herbicidal N-cyclohexadienyl heteroaryloxyacetamides” (American Cyanamid Co., priority 1999, dated 2002)

Legend:
Details in all cases: three weeks after treatment
[1] = system: Apera spica venti; experiment: Pre-emergence herbicidal evaluation, APESV; assay type: in vivo
Excerpt: (§1) The treated pots are then placed on greenhouse benches, watered and cared for in accordance with conventional greenhouse procedures.

[2] = system: Alopecurus myosuroides; experiment: Pre-emergence herbicidal evaluation, ALOMY; assay type: in vivo
Excerpt: as §1

[3] = system: Apera spica venti; experiment: Post-emergence herbicidal evaluation, APESV
[4] = system: Glycine max; experiment: Post-emergence herbicidal evaluation, GLXMA
[5] = system: Echinochloa crus-galli; experiment: Pre-emergence herbicidal evaluation, ECHCG; assay type: in vivo
Excerpt: as §1

[6] = system: Galium aparine; experiment: Post-emergence herbicidal evaluation, GALAP
Protocol: (§2) The compounds of the invention are tested for pre- and post-emergence herbicidal activity.
(§3) Each pot is examined three weeks after treatment and phytotoxicity is assessed according to the rating system set forth below.
(§4) These acetone solutions are diluted with water and the resulting formulations applied at dosage levels equivalent of about 0.4 to 0.1 kg per hectare of test compound per pot. After spraying the plants are placed on greenhouse benches and are cared for in the usual manner, commensurate with conventional greenhouse practices.

[7] = system: Amaranthus tuberculatus; experiment: Post-emergence herbicidal evaluation, AMATA; assay type: in vivo
[8] = system: Alopecurus myosuroides; experiment: Post-emergence herbicidal evaluation, ALOMY
[9] = system: Triticum aestivum; experiment: Post-emergence herbicidal evaluation, TRZAW
[10] = system: Setaria viridis; experiment: Post-emergence herbicidal evaluation, SETVI
[11] = system: Hordeum vulgare; experiment: Post-emergence herbicidal evaluation, HORVW
[12] = system: Zea mays; experiment: Pre-emergence herbicidal evaluation, ZEAMX; assay type: in vivo
Excerpt: as §1

[13] = system: Lolium perenne; experiment: Pre-emergence herbicidal evaluation, LOLPE; assay type: in vivo
Excerpt: as §1

[14] = system: Galium aparine; experiment: Pre-emergence herbicidal evaluation, GALAP; assay type: in vivo
Excerpt: as §1

[15] = system: Echinochloa crus-galli; experiment: Post-emergence herbicidal evaluation, ECHCG
[16] = system: Oryza sativum; experiment: Post-emergence herbicidal evaluation, ORYSA
Protocol: as §2, §3, §4

[17] = system: Amaranthus tuberculatus; experiment: Pre-emergence herbicidal evaluation, AMATA; assay type: in vivo
Excerpt: as §1

[18] = system: Hordeum vulgare; experiment: Pre-emergence herbicidal evaluation, HORVW; assay type: in vivo
Excerpt: as §1

[19] = system: Glycine max; experiment: Pre-emergence herbicidal evaluation, GLXMA; assay type: in vivo
Excerpt: as §1

[20] = system: Oryza sativum; experiment: Pre-emergence herbicidal evaluation, ORYSA; assay type: in vivo
Excerpt: as §1

[21] = system: Setaria viridis; experiment: Pre-emergence herbicidal evaluation, SETVI; assay type: in vivo
Excerpt: as §1

[22] = system: Zea mays; experiment: Post-emergence herbicidal evaluation, ZEAMX
[23] = system: Lolium perenne; experiment: Post-emergence herbicidal evaluation, LOLPE
[24] = system: Triticum aestivum; experiment: Pre-emergence herbicidal evaluation, TRZAW; assay type: in vivo
Excerpt: as §1

CCN(C(=O)COc1nnc(C(F)(F)F)s1)C1=CC(C)(C)CC(C)=C1 [Example 1]
phytotoxicity rating APESV ([1]; 0.100 kg/ha): 6 (6 - Herbicidal effect)
phytotoxicity rating APESV ([1]; 0.200 kg/ha): 8 (8 - Approaching complete kill)
phytotoxicity rating APESV ([1]; 0.400 kg/ha): 9 (9 - Complete kill)
phytotoxicity rating APESV ([1]; 0.800 kg/ha): 9 (9 - Complete kill)
phytotoxicity rating ALOMY ([2]; 0.100 kg/ha): 2 (2 - Slight effect)
phytotoxicity rating ALOMY ([2]; 0.200 kg/ha): 3 (3 - Moderate effect)
phytotoxicity rating ALOMY ([2]; 0.400 kg/ha): 9 (9 - Complete kill)
phytotoxicity rating ALOMY ([2]; 0.800 kg/ha): 7 (7 - Good herbicidal effect)
phytotoxicity rating APESV ([3]; 0.100 kg/ha): 5 (5 - Definite injury)
phytotoxicity rating APESV ([3]; 0.200 kg/ha): 8 (8 - Approaching complete kill)
phytotoxicity rating APESV ([3]; 0.400 kg/ha): 8 (8 - Approaching complete kill)
phytotoxicity rating GLXMA ([4]; 0.100 kg/ha): 4 (4 - Injury)
phytotoxicity rating GLXMA ([4]; 0.200 kg/ha): 5 (5 - Definite injury)
phytotoxicity rating GLXMA ([4]; 0.400 kg/ha): 4 (4 - Injury)
phytotoxicity rating ECHCG ([5]; 0.100 kg/ha): 4 (4 - Injury)
phytotoxicity rating ECHCG ([5]; 0.200 kg/ha): 8 (8 - Approaching complete kill)
phytotoxicity rating ECHCG ([5]; 0.400 kg/ha): 9 (9 - Complete kill)
phytotoxicity rating ECHCG ([5]; 0.800 kg/ha): 9 (9 - Complete kill)
phytotoxicity rating GALAP ([6]; 0.100 kg/ha): 0 (0 - No effect)
phytotoxicity rating GALAP ([6]; 0.200 kg/ha): 0 (0 - No effect)
phytotoxicity rating GALAP ([6]; 0.400 kg/ha): 1 (1 - Trace effect)
phytotoxicity rating AMATA ([7]; 0.100 kg/ha): 0 (0 - No effect)
phytotoxicity rating AMATA ([7]; 0.200 kg/ha): 0 (0 - No effect)
phytotoxicity rating AMATA ([7]; 0.400 kg/ha): 0 (0 - No effect)
phytotoxicity rating ALOMY ([8]; 0.100 kg/ha): 6 (6 - Herbicidal effect)
phytotoxicity rating ALOMY ([8]; 0.200 kg/ha): 6 (6 - Herbicidal effect)
phytotoxicity rating ALOMY ([8]; 0.400 kg/ha): 8 (8 - Approaching complete kill)
phytotoxicity rating TRZAW ([9]; 0.100 kg/ha): 0 (0 - No effect)
phytotoxicity rating TRZAW ([9]; 0.200 kg/ha): 0 (0 - No effect)
phytotoxicity rating TRZAW ([9]; 0.400 kg/ha): 1 (1 - Trace effect)
phytotoxicity rating SETVI ([10]; 0.100 kg/ha): 0 (0 - No effect)
phytotoxicity rating SETVI ([10]; 0.200 kg/ha): 2 (2 - Slight effect)
phytotoxicity rating SETVI ([10]; 0.400 kg/ha): 3 (3 - Moderate effect)
phytotoxicity rating HORVW ([11]; 0.100 kg/ha): 0 (0 - No effect)
phytotoxicity rating HORVW ([11]; 0.200 kg/ha): 0 (0 - No effect)
phytotoxicity rating HORVW ([11]; 0.400 kg/ha): 0 (0 - No effect)
phytotoxicity rating ZEAMX ([12]; 0.100 kg/ha): 0 (0 - No effect)
phytotoxicity rating ZEAMX ([12]; 0.200 kg/ha): 0 (0 - No effect)
phytotoxicity rating ZEAMX ([12]; 0.400 kg/ha): 2 (2 - Slight effect)
phytotoxicity rating ZEAMX ([12]; 0.800 kg/ha): 4 (4 - Injury)
phytotoxicity rating LOLPE ([13]; 0.100 kg/ha): 2 (2 - Slight effect)
phytotoxicity rating LOLPE ([13]; 0.200 kg/ha): 3 (3 - Moderate effect)
phytotoxicity rating LOLPE ([13]; 0.400 kg/ha): 9 (9 - Complete kill)
phytotoxicity rating LOLPE ([13]; 0.800 kg/ha): 9 (9 - Complete kill)
phytotoxicity rating GALAP ([14]; 0.100 kg/ha): 0 (0 - No effect)
phytotoxicity rating GALAP ([14]; 0.200 kg/ha): 4 (4 - Injury)
phytotoxicity rating GALAP ([14]; 0.400 kg/ha): 4 (4 - Injury)
phytotoxicity rating GALAP ([14]; 0.800 kg/ha): 4 (4 - Injury)
phytotoxicity rating ECHCG ([15]; 0.100 kg/ha): 2 (2 - Slight effect)
phytotoxicity rating ECHCG ([15]; 0.200 kg/ha): 4 (4 - Injury)
phytotoxicity rating ECHCG ([15]; 0.400 kg/ha): 7 (7 - Good herbicidal effect)
phytotoxicity rating ORYSA ([16]; 0.100 kg/ha): 0 (0 - No effect)
phytotoxicity rating ORYSA ([16]; 0.200 kg/ha): 0 (0 - No effect)
phytotoxicity rating ORYSA ([16]; 0.400 kg/ha): 3 (3 - Moderate effect)
phytotoxicity rating AMATA ([17]; 0.100 kg/ha): 0 (0 - No effect)
phytotoxicity rating AMATA ([17]; 0.200 kg/ha): 3 (3 - Moderate effect)
phytotoxicity rating AMATA ([17]; 0.400 kg/ha): 9 (9 - Complete kill)
phytotoxicity rating AMATA ([17]; 0.800 kg/ha): 9 (9 - Complete kill)
phytotoxicity rating HORVW ([18]; 0.100 kg/ha): 2 (2 - Slight effect)
phytotoxicity rating HORVW ([18]; 0.200 kg/ha): 2 (2 - Slight effect)
phytotoxicity rating HORVW ([18]; 0.400 kg/ha): 4 (4 - Injury)
phytotoxicity rating HORVW ([18]; 0.800 kg/ha): 4 (4 - Injury)
phytotoxicity rating GLXMA ([19]; 0.100 kg/ha): 0 (0 - No effect)
phytotoxicity rating GLXMA ([19]; 0.200 kg/ha): 0 (0 - No effect)
phytotoxicity rating GLXMA ([19]; 0.400 kg/ha): 2 (2 - Slight effect)
phytotoxicity rating GLXMA ([19]; 0.800 kg/ha): 2 (2 - Slight effect)
phytotoxicity rating ORYSA ([20]; 0.100 kg/ha): 0 (0 - No effect)
phytotoxicity rating ORYSA ([20]; 0.200 kg/ha): 0 (0 - No effect)
phytotoxicity rating ORYSA ([20]; 0.400 kg/ha): 3 (3 - Moderate effect)
phytotoxicity rating SETVI ([21]; 0.100 kg/ha): 4 (4 - Injury)
phytotoxicity rating SETVI ([21]; 0.200 kg/ha): 7 (7 - Good herbicidal effect)
phytotoxicity rating SETVI ([21]; 0.400 kg/ha): 8 (8 - Approaching complete kill)
phytotoxicity rating SETVI ([21]; 0.800 kg/ha): 8 (8 - Approaching complete kill)
phytotoxicity rating ZEAMX ([22]; 0.100 kg/ha): 0 (0 - No effect)
phytotoxicity rating ZEAMX ([22]; 0.200 kg/ha): 0 (0 - No effect)
phytotoxicity rating ZEAMX ([22]; 0.400 kg/ha): 0 (0 - No effect)
phytotoxicity rating LOLPE ([23]; 0.100 kg/ha): 6 (6 - Herbicidal effect)
phytotoxicity rating LOLPE ([23]; 0.200 kg/ha): 8 (8 - Approaching complete kill)
phytotoxicity rating LOLPE ([23]; 0.400 kg/ha): 8 (8 - Approaching complete kill)
phytotoxicity rating TRZAW ([24]; 0.100 kg/ha): 0 (0 - No effect)
phytotoxicity rating TRZAW ([24]; 0.200 kg/ha): 0 (0 - No effect)
phytotoxicity rating TRZAW ([24]; 0.400 kg/ha): 2 (2 - Slight effect)
phytotoxicity rating TRZAW ([24]; 0.800 kg/ha): 4 (4 - Injury)
